Data from US20130274180A1, “Pharmaceutical Compositions” (priority 2005, published 2013).

Experiments:
in vivo = conditions: rat, po
[1] = format: physicochemical
Text: The manufacture of an amorphous solid dispersion containing VX-950 presented several challenges. […] Therefore, an appropriate solvent or solvent mixture is crucial to optimizing the processing and production of a solid dispersion.

[2] = Effect of SLS concentration on apparent solubility (Example 10); format: physicochemical; conditions: VX-950 (95% L/5% D)
Procedure: The effect of SLS concentration on the apparent solubility of VX-950 solid dispersions were tested.

bioavailability (in vivo)	aqueous solubility [1]	pH dependence of aqueous solubility [1]	solubility in water [1]	% dissolved in water @ 5 min. [2]	Structure (SMILES)
< 0.5%	virtually undetectable	not pH-dependent	highly insoluble	–	CCC[C@H](NC(=O)[C@@H]1[C@H]2CCC[C@H]2CN1C(=O)[C@@H](NC(=O)[C@@H](NC(=O)c1cnccn1)C1CCCCC1)C(C)(C)C)C(=O)C(=O)NC1CC1 [VX-950]
–	–	–	–	2.7%	CCC[C@H](NC(=O)[C@@H]1[C@H]2CCC[C@H]2CN1C(=O)[C@@H](NC(=O)[C@@H](NC(=O)c1cnccn1)C1CCCCC1)C(C)(C)C)C(=O)C(=O)NC1CC1 [No Excipients]
